Experimental data from ChEMBL document CHEMBL1125506, “Fluoronaphthyridines as antibacterial agents. 6. Synthesis and structure-activity relationships of new chiral 7-(1-, 3-, 4-, and 6-methyl-2,5-diazabicyclo[2.2.1]heptan-2-yl)naphthyridine analogues of 7-[(1R,4R)-2,5- diazabicyclo[2.2.1]heptan-2-yl]-1-(1,1-dimethylethyl)-6-fluoro-1,4-dihy …” (J Med Chem, 1992).
Converted amounts (≈) assume the structure as drawn.

Key:
Mus musculus [1] = experiment: In vivo efficacy on systemic infections caused by Pseudomonas aeruginosa A9843 in mice after intramuscular administration; assay type: functional; conditions: im, read-out: PD50
[2] = Percent urinary recovery in 24 hr after peroral administration to mice; assay type: ADME, organism-based; conditions: mouse, urine, po; read-out: UR
Klebsiella pneumoniae = experiment: In vitro antibacterial activity against Klebsiella pneumoniae A9664; assay type: functional
Morganella morganii = experiment: In vitro antibacterial activity against Morganella morganii A15153; assay type: functional
Escherichia coli = experiment: In vitro antibacterial activity against Escherichia coli A15119; assay type: functional
Mus musculus [3] = experiment: In vivo efficacy on systemic infections caused by Pseudomonas aeruginosa A9843 in mice after peroral administration; assay type: functional; conditions: po, read-out: PD50
Proteus mirabilis = experiment: In vitro antibacterial activity against Proteus mirabilis A9900; assay type: functional
[4] = Solubility (water, 22C, pH 7.2); assay type: physicochemical; conditions: read-out: S
[5] = Peak concentration in blood after intravenous administration to mice; assay type: ADME, organism-based; parameters: route intravenous; conditions: mouse
Staphylococcus aureus = experiment: In vitro antibacterial activity against Staphylococcus aureus A9537; assay type: functional
Mus musculus [6] = experiment: In vivo efficacy on systemic infections caused by Escherichia coli A15119 in mice after intramuscular administration; assay type: functional; conditions: im, read-out: PD50
Enterobacter cloacae = experiment: In vitro antibacterial activity against Enterobacter cloacae A9656; assay type: functional
[7] = Peak concentration in blood after peroral administration to mice; assay type: ADME, organism-based; parameters: route oral; conditions: mouse, po
[8] = percent urinary recovery in 24 hr after intravenous administration to mice; assay type: ADME, organism-based; conditions: mouse, urine, read-out: UR
[9] = Plasma half-life after intravenous administration to mice; assay type: ADME, organism-based; conditions: mouse
Mus musculus [10] = experiment: Area under curve measured as conc vs time after peroral administration to mice.; assay type: ADME, organism-based; parameters: unit not given here; conditions: in vivo, po
Mus musculus [11] = experiment: In vivo efficacy on systemic infections caused by Escherichia coli A15119 in mice after peroral administration; assay type: functional; conditions: po, read-out: PD50
[12] = Acute toxicity after peroral administration to mice; assay type: organism-based; conditions: mouse, in vivo, po
Pseudomonas aeruginosa = experiment: In vitro antibacterial activity against Pseudomonas aeruginosa A9843; assay type: functional
[13] = Partition coefficient (logD); assay type: physicochemical; conditions: octanol/water
Mus musculus [14] = experiment: Area under curve measured as conc vs time after intravenous administration to mice.; assay type: ADME, organism-based; parameters: unit not given here; conditions: in vivo
[15] = Plasma half-life after peroral administration to mice; assay type: ADME, organism-based; conditions: mouse, po
Serratia marcescens = experiment: In vitro antibacterial activity against Serratia marcescens A20019; assay type: functional
[16] = Acute toxicity after intravenous administration to mice; assay type: organism-based; conditions: mouse, in vivo
Enterococcus faecalis = experiment: In vitro antibacterial activity against Enterococcus faecalis A9809; assay type: functional
Bacteroides fragilis = experiment: In vitro antibacterial activity against Bacteroides fragilis A-22,862; assay type: functional
Streptococcus pneumoniae = experiment: In vitro antibacterial activity against Streptococcus pneumoniae A9585.; assay type: functional
Mus musculus [17] = experiment: In vivo efficacy on systemic infections caused by Staphylococcus aureus A15090 in mice after peroral administration; assay type: functional; conditions: po, read-out: PD50
Mus musculus [18] = experiment: In vivo efficacy on systemic infections caused by Staphylococcus aureus A15090 in mice after intramuscular administration; assay type: functional; conditions: im, read-out: PD50

Structure (SMILES): CN1C[C@H]2C[C@@H]1CN2c1nc2c(cc1F)c(=O)c(C(=O)O)cn2C(C)(C)C
- ED50 (Mus musculus [1]): 4.7 mg/kg
- dose excreted at 24 h [2]: 3%
- MIC (Klebsiella pneumoniae): 0.13 µg/mL (≈ 0.347 µM)
- MIC (Morganella morganii): 0.5 µg/mL (≈ 1.34 µM)
- MIC (Escherichia coli): 0.25 µg/mL (≈ 0.668 µM)
- ED50 (Mus musculus [3]): 10.2 mg/kg
- MIC (Proteus mirabilis): 1 µg/mL (≈ 2.67 µM)
- solubility [4]: 310 µg/mL (≈ 828 µM)
- Cmax [5]: 14000 ng/mL
- MIC (Staphylococcus aureus): 0.13 µg/mL (≈ 0.347 µM)
- ED50 (Mus musculus [6]): 1 mg/kg
- MIC (Enterobacter cloacae): 0.13 µg/mL (≈ 0.347 µM)
- Cmax [7]: 13000 ng/mL
- dose excreted at 24 h [8]: 15%
- half-life [9]: 1.6 h
- AUC (Mus musculus [10]): 18
- ED50 (Mus musculus [11]): 2.4 mg/kg
- LD50 [12]: 1000 mg/kg
- MIC (Pseudomonas aeruginosa): 2 µg/mL (≈ 5.34 µM)
- logD [13]: 0.21
- AUC (Mus musculus [14]): 14
- half-life [15]: 1.33 h
- MIC (Serratia marcescens): 0.25 µg/mL (≈ 0.668 µM)
- LD50 [16]: 188 mg/kg

Structure (SMILES): CC(C)(C)n1cc(C(=O)O)c(=O)c2cc(F)c(N3C[C@@]4(C)C[C@@H]3CN4)nc21.Cl
- MIC (Enterococcus faecalis): 1 µg/mL
- MIC (Klebsiella pneumoniae): 0.03 µg/mL
- MIC (Morganella morganii): 0.25 µg/mL
- MIC (Bacteroides fragilis): 16 µg/mL
- MIC (Escherichia coli): 0.03 µg/mL
- MIC (Streptococcus pneumoniae): 0.5 µg/mL
- MIC (Proteus mirabilis): 0.25 µg/mL
- solubility [4]: 67 µg/mL
- MIC (Staphylococcus aureus): 0.03 µg/mL
- MIC (Enterobacter cloacae): 0.016 µg/mL
- MIC (Pseudomonas aeruginosa): 1 µg/mL
- logD [13]: 0.02
- MIC (Serratia marcescens): 0.13 µg/mL

Structure (SMILES): Cc1c(F)c(N2[C@H]3CN[C@H](C3)[C@@H]2C)nc2c1c(=O)c(C(=O)O)cn2C1CC1.Cl
- MIC (Enterococcus faecalis): 0.25 µg/mL
- MIC (Klebsiella pneumoniae): 0.016 µg/mL
- MIC (Morganella morganii): 0.13 µg/mL
- MIC (Bacteroides fragilis): 4 µg/mL
- MIC (Escherichia coli): 0.016 µg/mL
- MIC (Streptococcus pneumoniae): 0.13 µg/mL
- MIC (Proteus mirabilis): 0.13 µg/mL
- solubility [4]: 70 µg/mL
- MIC (Staphylococcus aureus): 0.016 µg/mL
- MIC (Enterobacter cloacae): 0.016 µg/mL
- MIC (Pseudomonas aeruginosa): 0.25 µg/mL
- logD [13]: 0.73
- MIC (Serratia marcescens): 0.13 µg/mL

Structure (SMILES): CC(C)(C)n1cc(C(=O)O)c(=O)c2cc(F)c(N3C[C@H]4C[C@]3(C)CN4)nc21.Cl
- MIC (Enterococcus faecalis): 16 µg/mL
- MIC (Klebsiella pneumoniae): 0.5 µg/mL
- MIC (Morganella morganii): 2 µg/mL
- MIC (Bacteroides fragilis): 64 µg/mL
- MIC (Escherichia coli): 0.25 µg/mL
- MIC (Streptococcus pneumoniae): 2 µg/mL
- MIC (Proteus mirabilis): 2 µg/mL
- solubility [4]: 6 µg/mL
- MIC (Staphylococcus aureus): 1 µg/mL
- MIC (Enterobacter cloacae): 0.25 µg/mL
- MIC (Pseudomonas aeruginosa): 4 µg/mL
- logD [13]: -0.37
- MIC (Serratia marcescens): 1 µg/mL

Structure (SMILES): C[C@H]1[C@H]2C[C@H](CN2)N1c1nc2c(cc1F)c(=O)c(C(=O)O)cn2C(C)(C)C.Cl
- ED50 (Mus musculus [1]): 12.5 mg/kg
- dose excreted at 24 h [2]: 16%
- MIC (Enterococcus faecalis): 1 µg/mL
- MIC (Klebsiella pneumoniae): 0.5 µg/mL
- MIC (Morganella morganii): 1 µg/mL
- MIC (Bacteroides fragilis): 8 µg/mL
- MIC (Escherichia coli): 0.03 µg/mL
- ED50 (Mus musculus [3]): 22 mg/kg
- MIC (Streptococcus pneumoniae): 1 µg/mL
- MIC (Proteus mirabilis): 1 µg/mL
- solubility [4]: 1330 µg/mL
- Cmax [5]: 22000 ng/mL
- MIC (Staphylococcus aureus): 0.06 µg/mL
- MIC (Enterobacter cloacae): 0.13 µg/mL
- Cmax [7]: 9000 ng/mL
- dose excreted at 24 h [8]: 16%
- half-life [9]: 1.22 h
- AUC (Mus musculus [10]): 17
- ED50 (Mus musculus [17]): 5.4 mg/kg
- MIC (Pseudomonas aeruginosa): 2 µg/mL
- logD [13]: -0.22
- AUC (Mus musculus [14]): 22
- half-life [15]: 1.08 h
- MIC (Serratia marcescens): 0.25 µg/mL

Structure (SMILES): C[C@@H]1[C@H]2C[C@H](CN2)N1c1nc2c(cc1F)c(=O)c(C(=O)O)cn2C(C)(C)C.Cl
- ED50 (Mus musculus [1]): 12.5 mg/kg
- dose excreted at 24 h [2]: 1%
- MIC (Enterococcus faecalis): 0.5 µg/mL
- MIC (Klebsiella pneumoniae): 0.25 µg/mL
- MIC (Morganella morganii): 0.5 µg/mL
- MIC (Bacteroides fragilis): 1 µg/mL
- MIC (Escherichia coli): 0.016 µg/mL
- ED50 (Mus musculus [3]): 22 mg/kg
- MIC (Streptococcus pneumoniae): 0.13 µg/mL
- MIC (Proteus mirabilis): 0.5 µg/mL
- solubility [4]: 11800 µg/mL
- Cmax [5]: 13000 ng/mL
- MIC (Staphylococcus aureus): 0.03 µg/mL
- ED50 (Mus musculus [6]): 2.4 mg/kg
- MIC (Enterobacter cloacae): 0.06 µg/mL
- Cmax [7]: 5000 ng/mL
- dose excreted at 24 h [8]: 2%
- half-life [9]: 0.733 h
- AUC (Mus musculus [10]): 5
- ED50 (Mus musculus [18]): 7.5 mg/kg
- ED50 (Mus musculus [11]): 12.5 mg/kg
- ED50 (Mus musculus [17]): 13.1 mg/kg
- MIC (Pseudomonas aeruginosa): 1 µg/mL
- logD [13]: 0.17
- AUC (Mus musculus [14]): 10
- half-life [15]: 0.8 h
- MIC (Serratia marcescens): 0.25 µg/mL

Structure (SMILES): Cc1c(F)c(N2C[C@H]3C[C@@H]2[C@H](C)N3)nc2c1c(=O)c(C(=O)O)cn2C(C)(C)C.Cl
- MIC (Enterococcus faecalis): 0.5 µg/mL
- MIC (Klebsiella pneumoniae): 0.13 µg/mL
- MIC (Morganella morganii): 0.5 µg/mL
- MIC (Bacteroides fragilis): 16 µg/mL
- MIC (Escherichia coli): 0.03 µg/mL
- MIC (Streptococcus pneumoniae): 0.5 µg/mL
- MIC (Proteus mirabilis): 0.5 µg/mL
- solubility [4]: 250 µg/mL
- MIC (Staphylococcus aureus): 0.016 µg/mL
- MIC (Enterobacter cloacae): 0.03 µg/mL
- MIC (Pseudomonas aeruginosa): 2 µg/mL
- logD [13]: 1.3
- MIC (Serratia marcescens): 0.5 µg/mL
